Test results reported in ChEMBL document CHEMBL1201862, “PubChem BioAssay data set” (2004).
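Cultured in 96-well plates, cells were exposed to test compound for 48 hours across five concentrations. Here, GI50 denotes the concentration required for 50% inhibition of growth.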 Calls of active or inactive are those of the source. Rule as the data show it: active = GI50 up to about 1.1 µM and inactive = higher.

Key:
Assay in all cases: NCI-60 cell line screen, 48 h
A549 = system: A549
NCI-H226 = system: NCI-H226
MDA-N = system: MDA-N
T47D = system: T47D
HCT-116 = system: HCT-116
NCI-H460 = system: NCI-H460
NCI-H23 = system: NCI-H23
OVCAR-4 = system: OVCAR-4
PC-3 = system: PC-3
ACHN = system: ACHN
SK-MEL-5 = system: SK-MEL-5
NCI-H522 = system: NCI-H522
SF-268 = system: SF-268
Hs-578T = system: Hs-578T
M14 = system: M14
SK-OV-3 = system: SK-OV-3

Measured: GI50

NC1c2c(Br)sc(N3CCCC3)c2C(=O)C1O (stereo unspecified)
inactive: A549 > 50 µM | NCI-H226 > 50 µM | MDA-N > 50 µM | T47D > 50 µM | HCT-116 > 50 µM | NCI-H460 > 50 µM | NCI-H23 > 50 µM | OVCAR-4 > 50 µM | PC-3 > 50 µM | ACHN > 50 µM | SK-MEL-5 > 50 µM | NCI-H522 > 50 µM | SF-268 > 50 µM | Hs-578T > 50 µM | M14 > 50 µM | SK-OV-3 > 50 µM

CCCSc1cc(Cl)c(C)cc1S(=O)(=O)n1ccnc1OCCCN(C)C
inactive: A549 > 100 µM | NCI-H226 > 100 µM | MDA-N > 100 µM | T47D > 100 µM | HCT-116 > 100 µM | NCI-H460 > 100 µM | NCI-H23 > 100 µM | OVCAR-4 > 100 µM | PC-3 > 100 µM | ACHN > 100 µM | SK-MEL-5 > 100 µM | NCI-H522 > 100 µM | SF-268 > 100 µM | Hs-578T > 100 µM | M14 > 100 µM | SK-OV-3 > 100 µM

Cc1ccc(OCC2OC(n3cnc4c(N(C)C)nc(Br)nc43)CC2Oc2ccc(C)cc2)cc1 (stereo unspecified)
inactive: A549 > 100 µM | NCI-H226 > 100 µM | MDA-N > 100 µM | T47D > 100 µM | HCT-116 > 100 µM | NCI-H460 > 100 µM | NCI-H23 > 100 µM | OVCAR-4 > 100 µM | PC-3 > 100 µM | ACHN > 100 µM | SK-MEL-5 > 100 µM | NCI-H522 > 100 µM | SF-268 > 100 µM | Hs-578T > 100 µM | M14 > 100 µM | SK-OV-3 > 100 µM

CC(C)C1C(=O)N(c2c(F)c(F)c(F)c(F)c2F)C(=S)N1CC[S+]([O-])c1ccccc1 (stereo unspecified)
inactive: A549 18.9 µM | NCI-H226 20.4 µM | MDA-N 17.3 µM | T47D 6.78 µM | HCT-116 18.8 µM | NCI-H460 19.3 µM | NCI-H23 16.8 µM | OVCAR-4 16.3 µM | PC-3 15.4 µM | ACHN 18.6 µM | SK-MEL-5 14.2 µM | NCI-H522 6.49 µM | SF-268 16.7 µM | Hs-578T 30.2 µM | M14 15.7 µM | SK-OV-3 19.6 µM

Nc1nc(Cl)c(N)c(NC23CC4CC(CC(C4)C2)C3)n1
inactive: A549 2.13 µM | NCI-H226 1.92 µM | MDA-N 1.58 µM | T47D 1.34 µM | HCT-116 1.58 µM | NCI-H460 3.07 µM | NCI-H23 2.23 µM | OVCAR-4 1.85 µM | PC-3 1.36 µM | ACHN 1.78 µM | SK-MEL-5 1.72 µM | NCI-H522 1.92 µM | SF-268 2.57 µM | Hs-578T 4.4 µM | M14 1.36 µM | SK-OV-3 4.32 µM

CCCCCOc1ccc(NC2=C(Cl)C(=O)c3c(O)ccc(O)c3C2=O)cc1
inactive: A549 > 10 µM | NCI-H226 > 10 µM | MDA-N 3.03 µM | T47D 2.76 µM | HCT-116 2.88 µM | NCI-H460 4.13 µM | NCI-H23 3.27 µM | OVCAR-4 5.12 µM | PC-3 5.25 µM | ACHN > 10 µM | SK-MEL-5 5.43 µM | NCI-H522 2.55 µM | SF-268 > 10 µM | Hs-578T 1.91 µM | M14 3.03 µM | SK-OV-3 > 10 µM

COc1cc(/C=C2\C[C@H]3[C@@H]4CC=C5C[C@@H](OC(C)=O)CC[C@]5(C)[C@H]4CC[C@]3(C)\C2=N\O)cc(OC)c1OC
inactive: A549 4.69 µM | NCI-H226 8.45 µM | MDA-N 4.62 µM | T47D 1.64 µM | HCT-116 4.53 µM | NCI-H460 4.08 µM | NCI-H23 5.7 µM | OVCAR-4 3.37 µM | PC-3 2.54 µM | ACHN 3.75 µM | SK-MEL-5 3.61 µM | NCI-H522 4.85 µM | SF-268 7.82 µM | Hs-578T 4.37 µM | M14 5.73 µM | SK-OV-3 25.5 µM

O=C(/C=C/c1ccc(Cl)cc1)Oc1ccc(C=C2CCC/C(=C\c3ccc(OC(=O)/C=C/c4ccc(Cl)cc4)cc3)C2=O)cc1
inactive: A549 > 100 µM | NCI-H226 > 100 µM | MDA-N > 100 µM | T47D > 100 µM | HCT-116 > 100 µM | NCI-H460 > 100 µM | NCI-H23 > 100 µM | OVCAR-4 > 100 µM | PC-3 > 100 µM | ACHN > 100 µM | SK-MEL-5 > 100 µM | NCI-H522 > 100 µM | SF-268 > 100 µM | Hs-578T > 100 µM | M14 > 100 µM | SK-OV-3 > 100 µM

CC(C)=CCc1c2c(c(O)c3c(=O)c4c(oc13)-c1ccc(O)cc1OC4C=C(C)C)C=CC(C)(C)O2 (stereo unspecified)
inactive: A549 10.8 µM | NCI-H226 21.9 µM | MDA-N 13.2 µM | T47D 8.79 µM | HCT-116 8.45 µM | NCI-H460 13.7 µM | NCI-H23 6.31 µM | OVCAR-4 11.6 µM | PC-3 12.1 µM | ACHN 11.8 µM | SK-MEL-5 14.8 µM | NCI-H522 12.4 µM | SF-268 14.2 µM | Hs-578T 2.37 µM | M14 18 µM | SK-OV-3 18.5 µM

CC(Nc1cccc(Cl)c1)c1ccncc1 (stereo unspecified)
inactive: A549 > 100 µM | NCI-H226 44.3 µM | MDA-N > 100 µM | T47D 27.4 µM | HCT-116 70.8 µM | NCI-H460 > 100 µM | NCI-H23 71.3 µM | OVCAR-4 > 100 µM | PC-3 30.5 µM | ACHN 87.1 µM | SK-MEL-5 31.6 µM | NCI-H522 83.6 µM | SF-268 > 100 µM | Hs-578T > 100 µM | M14 > 100 µM | SK-OV-3 15.8 µM

Cc1ccc(S(=O)(=O)N2CCSCCSCCN(S(=O)(=O)c3ccc(C)cc3)CCN(S(=O)(=O)c3ccc(C)cc3)CC2)cc1
inactive: A549 > 100 µM | NCI-H226 > 100 µM | MDA-N > 100 µM | T47D > 100 µM | HCT-116 > 100 µM | NCI-H460 > 100 µM | NCI-H23 > 100 µM | OVCAR-4 > 100 µM | PC-3 > 100 µM | ACHN > 100 µM | SK-MEL-5 > 100 µM | NCI-H522 > 100 µM | SF-268 > 100 µM | Hs-578T > 100 µM | M14 > 100 µM | SK-OV-3 > 100 µM

Clc1cccc(N/N=N/c2ccc(-c3nc4ccccc4s3)cc2)c1
inactive: A549 82.4 µM | NCI-H226 94.8 µM | MDA-N 26.4 µM | T47D 47.9 µM | HCT-116 32.7 µM | NCI-H460 50.9 µM | NCI-H23 24.5 µM | OVCAR-4 46.9 µM | PC-3 41.6 µM | ACHN > 100 µM | SK-MEL-5 25.4 µM | NCI-H522 24.2 µM | Hs-578T > 100 µM | M14 34.8 µM | SK-OV-3 42.3 µM
